Measurements as given in PubChem BioAssay AID248 (DTP/NCI, 2004).
Several values for one entry are separate records, joined by “and”; a condition that tells them apart may be missing. Equal values may be shown once. Inconclusive results and toxic doses are left out. No stated cut-off is given here; in the data, active means T/C of 150% or more; inactive means T/C below 125%. Square brackets hold non-standard residues; d marks the D form. Peptide text beside a SMILES is read from it. * marks the point of attachment. Arg(NO2) = N=C(NCCC[CH](N)C(=O)O)N[N+](=O)[O-]; Cbz = O=C(OCc1ccccc1)*

System: L1210 leukemia ip in BDF1 mice, survival T/C
Assay: NCI In Vivo Anticancer Drug Screen. Data for tumor model L1210 Leukemia (intraperitoneal) in B6D2F1 (BDF1) mice
Conditions: endpoint: mean survival time, higher = longer survival
Outline: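 Mice bearing the transplanted tumor received compound or vehicle. Survival of the treated group was divided by that of the vehicle-treated control group to give the ratio.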

[1] = dose: 100.0 mg/kg/injection, schedule: Q01DX009 (ip), vehicle: saline with Tween-80
[2] = dose: 200.0 mg/kg/injection, schedule: Q01DX009 (ip), vehicle: saline with Tween-80
[3] = dose: 400.0 mg/kg/injection, schedule: Q01DX009 (ip), vehicle: saline with Tween-80
[4] = dose: 100.0 mg/kg/injection, schedule: Q04DX003 (ip), vehicle: Klucel (hydroxypropylcellulose) (HPC)
[5] = dose: 200.0 mg/kg/injection, schedule: Q04DX003 (ip), vehicle: Klucel (hydroxypropylcellulose) (HPC)
[6] = dose: 400.0 mg/kg/injection, schedule: Q04DX003 (ip), vehicle: Klucel (hydroxypropylcellulose) (HPC)
[7] = dose: 100.0 mg/kg/injection, schedule: Q01DX001 (ip), vehicle: saline
[8] = dose: 200.0 mg/kg/injection, schedule: Q01DX001 (ip), vehicle: saline
[9] = dose: 400.0 mg/kg/injection, schedule: Q01DX001 (ip), vehicle: saline
[10] = dose: 100.0 mg/kg/injection, schedule: Q04DX003 (ip), vehicle: saline with Tween-80
[11] = dose: 200.0 mg/kg/injection, schedule: Q04DX003 (ip), vehicle: saline with Tween-80
[12] = dose: 400.0 mg/kg/injection, schedule: Q04DX003 (ip), vehicle: saline with Tween-80
[13] = dose: 100.0 mg/kg/injection, schedule: Q04DX002 (ip), vehicle: Klucel (hydroxypropylcellulose) (HPC)
[14] = dose: 200.0 mg/kg/injection, schedule: Q04DX002 (ip), vehicle: Klucel (hydroxypropylcellulose) (HPC)
[15] = dose: 400.0 mg/kg/injection, schedule: Q04DX002 (ip), vehicle: Klucel (hydroxypropylcellulose) (HPC)
[16] = dose: 100.0 mg/kg/injection, schedule: Q01DX001 (ip), vehicle: carboxymethylcellulose (CMC)
[17] = dose: 200.0 mg/kg/injection, schedule: Q01DX001 (ip), vehicle: carboxymethylcellulose (CMC)
[18] = dose: 400.0 mg/kg/injection, schedule: Q01DX001 (ip), vehicle: carboxymethylcellulose (CMC)

Measured: T/C

Cc1cc(=O)[nH]c(Nc2nc3cc(Cl)c(Cl)cc3[nH]2)n1
inactive: [1] 92 % of control | [2] 90 % of control | [3] 97 % of control

c1ccc(-c2csc(NNc3nc(-c4ccccc4)cs3)n2)cc1
inactive: [4] 95 % of control | [5] 90 % of control | [6] 112 % of control

COC(=O)C(=[N+]=[N-])C(F)(F)F
inactive: dose: 50.0 mg/kg/injection, schedule: Q01DX009 (ip), vehicle: saline 95 % of control | dose: 100.0 mg/kg/injection, schedule: Q01DX009 (ip), vehicle: saline 102 % of control | dose: 200.0 mg/kg/injection, schedule: Q01DX009 (ip), vehicle: saline 102 % of control

O=C(Cl)c1cccc2c([N+](=O)[O-])cccc12
inactive: dose: 22.0 mg/kg/injection, schedule: Q01DX001 (ip), vehicle: other 96 % of control and 100 % of control | dose: 33.0 mg/kg/injection, schedule: Q01DX001 (ip), vehicle: other 103 % of control and 105 % of control | dose: 75.0 mg/kg/injection, schedule: Q01DX001 (ip), vehicle: other 103 % of control and 107 % of control | dose: 100.0 mg/kg/injection, schedule: Q01DX001 (ip), vehicle: other 97 % of control | dose: 200.0 mg/kg/injection, schedule: Q01DX001 (ip), vehicle: other 101 % of control | dose: 400.0 mg/kg/injection, schedule: Q01DX001 (ip), vehicle: other 106 % of control

CN(C)NP(=O)(c1ccccc1)c1ccccc1
inactive: [7] 98 % of control | [8] 95 % of control | [9] 97 % of control

COc1ccccc1C1(O)c2ccccc2Sc2cccc(OC)c21 (stereo not given)
inactive: [10] 104 % of control | [11] 95 % of control | [12] 98 % of control

CCCCCCCCCCCC(=O)N/N=C(\c1ccccc1)c1ccc(Cl)cc1
inactive: [13] 103 % of control | [14] 103 % of control | [15] 122 % of control

CCN(CC)C(=O)Cn1cc(F)c(=O)[nH]c1=O
inactive: [10] 98 % of control | dose: 100.0 mg/kg/injection, schedule: Q04DX003 (ip), vehicle: saline 104 % of control | [11] 101 % of control | dose: 200.0 mg/kg/injection, schedule: Q04DX003 (ip), vehicle: saline 104 % of control | [12] 106 % of control | dose: 400.0 mg/kg/injection, schedule: Q04DX003 (ip), vehicle: saline 98 % of control

O=C(O)/C=C\c1ccccc1
inactive: dose: 100.0 mg/kg/injection, schedule: Q01DX009 (ip), vehicle: other 100 % of control | dose: 200.0 mg/kg/injection, schedule: Q01DX009 (ip), vehicle: other 95 % of control

Cc1cc(C(=O)C[n+]2ccccc2)c(CN2C(=O)c3ccccc3C2=O)c(=O)n1C
inactive: dose: 100.0 mg/kg/injection, schedule: Q01DX001 (ip), vehicle: water 102 % of control

C/C(=N/NC(=O)c1ccncc1)C(=O)O
inactive: dose: 25.0 mg/kg/injection, schedule: Q04DX003 (ip), vehicle: saline with Tween-80 92 % of control | dose: 50.0 mg/kg/injection, schedule: Q04DX003 (ip), vehicle: saline with Tween-80 93 % of control | [10] 101 % of control

C#CCNc1ccc(C(=O)OCC)cc1
inactive: dose: 100.0 mg/kg/injection, schedule: Q04DX002 (ip), vehicle: gum acacia 99 % of control | dose: 200.0 mg/kg/injection, schedule: Q04DX002 (ip), vehicle: gum acacia 108 % of control | dose: 400.0 mg/kg/injection, schedule: Q04DX002 (ip), vehicle: gum acacia 92 % of control

CCCCCCCCCCC/C=N\N(C)C
inactive: [13] 96 % of control | [14] 92 % of control | [15] 103 % of control

[Cl][Sn]([Cl])([c]1ccccc1)[c]1ccccc1
inactive: dose: 12.5 mg/kg/injection, schedule: Q01DX001 (ip), vehicle: saline 108 % of control | dose: 25.0 mg/kg/injection, schedule: Q01DX001 (ip), vehicle: saline 96 % of control | dose: 50.0 mg/kg/injection, schedule: Q01DX001 (ip), vehicle: saline 100 % of control

Nc1nnnn1CC(Br)CBr (stereo not given)
inactive: dose: 100.0 mg/kg/injection, schedule: Q04DX002 (ip), vehicle: saline 104 % of control | dose: 200.0 mg/kg/injection, schedule: Q04DX002 (ip), vehicle: saline 101 % of control | dose: 400.0 mg/kg/injection, schedule: Q04DX002 (ip), vehicle: saline 90 % of control

O=C1c2cccc3cc([N+](=O)[O-])cc(c23)C(=O)N1O
inactive: [7] 101 % of control | [8] 97 % of control | [9] 107 % of control

COC1=C(c2ccccc2)P(=O)(Cc2ccccc2)C(C)C1 (stereo not given)
inactive: [13] 108 % of control | [14] 96 % of control | [15] 93 % of control

Nc1ccc2c(c1)Cc1ccccc1-2
inactive: [10] 101 % of control | [11] 101 % of control

CCCCC(=O)N/N=C\c1cc([N+](=O)[O-])ccc1O
inactive: [16] 91 % of control | [17] 98 % of control | [18] 87 % of control

COC(=O)C(CCCN=C(N)N[N+](=O)[O-])NC(=O)C(Cc1ccccc1)NC(=O)C1CCCN1C(=O)OCc1ccccc1 (stereo not drawn) (Cbz-Pro-Phe-[Arg(NO2)]-OMe; configuration not given here)
inactive: [7] 90 % of control | [8] 96 % of control | [9] 92 % of control

O=C(NCc1cnccn1)c1ccccc1Cl
inactive: [1] 86 % of control | [10] 96 % of control | [2] 104 % of control | [11] 96 % of control | [3] 102 % of control | [12] 104 % of control

CCCCCCCCCCCCCCCCOc1ccc(C(C)(C)C)cc1
inactive: dose: 100.0 mg/kg/injection, schedule: Q01DX001 (ip), vehicle: Klucel (hydroxypropylcellulose) (HPC) 93 % of control | dose: 200.0 mg/kg/injection, schedule: Q01DX001 (ip), vehicle: Klucel (hydroxypropylcellulose) (HPC) 93 % of control | dose: 400.0 mg/kg/injection, schedule: Q01DX001 (ip), vehicle: Klucel (hydroxypropylcellulose) (HPC) 93 % of control

CCC1(Cc2ccccc2)C(=O)NC(=S)N(C)C1=O (stereo not given)
inactive: dose: 75.0 mg/kg/injection, schedule: Q01DX001 (ip), vehicle: saline 106 % of control

CCCCNC(=O)C1C2C=CC(C2)C1C(=O)NCCCC (stereo not given)
inactive: [10] 96 % of control | [11] 96 % of control | [12] 91 % of control

N#Cc1cccc(CS(=O)(=O)c2ccccc2)c1
inactive: [13] 104 % of control | [14] 96 % of control | [15] 89 % of control

O=C(Cn1ccc(=O)[nH]c1=O)Nc1ccc(O)c(C(=O)O)c1
inactive: dose: 50.0 mg/kg/injection, schedule: Q04DX003 (ip), vehicle: Klucel (hydroxypropylcellulose) (HPC) 100 % of control | [4] 107 % of control | [5] 100 % of control

O=C1c2cscc2C(=O)c2sccc21
inactive: dose: 100.0 mg/kg/injection, schedule: Q01DX001 (ip), vehicle: saline with Tween-80 100 % of control | dose: 200.0 mg/kg/injection, schedule: Q01DX001 (ip), vehicle: saline with Tween-80 102 % of control | dose: 400.0 mg/kg/injection, schedule: Q01DX001 (ip), vehicle: saline with Tween-80 96 % of control

COC1CCC2CC3(CCC2(C)C1O)OCCO3 (stereo not given)
inactive: [16] 100 % of control | [17] 105 % of control | [18] 97 % of control

Cn1cc([N+](=O)[O-])ccc1=O
inactive: [4] 110 % of control | [5] 116 % of control | [6] 121 % of control
